Test results from publication PMC3272276 (The Journal of Organic Chemistry, 2010).

System: Candida albicans
Assay: Antifungal activity
Type: cell-based

Row | Substance | inhibition of growth of Candida albicans (in words)
1 | theonellamide A | antifungal activity of the extracts was traced to the known peptide theonellamide A
2 | mutremdamide A | None of the koshikamides or mutremdamide A inhibited the growth
